{
  "source": "patent US9446006B2",
  "about": "“Hydroxytyrosol combinations for enhancing mitochondrial function and energy production” (DSM IP ASSETS B.V., priority 2009, dated 2016)",
  "key": {"C2C12 mouse myoblasts": {"test_system": "C2C12 mouse myoblasts", "experiment": "Mitochondrial membrane potential by relative JC-1 fluorescence", "type": "cell-based", "settings": "C2C12 cells, 24 h; for Increase in mitochondrial membrane potential: vs. control", "from_the_text": "The objective of the experiment was to investigate whether and how mitochondrial energy production in myoblasts is affected by hydroxytyrosol alone or in combination with other compounds. For energy production, the mitochondrial electron transport chain generates a proton gradient across the […], creating a membrane potential that powers the synthesis of ATP by the ATP synthase complex. […] If a critical concentration is reached, JC-1 forms aggregates, which changes its fluorescence properties from green to red fluorescence. […] An increased mitochondrial membrane potential indicates an improved energetic state and increased capability to generate ATP and provide energy for other cellular components. […] C2C12 cells were seeded into a 96-well cell culture plate at 1000 cells/well and cultured in growth medium (Dulbecco's modified eagle medium (DMEM) supplemented with 10% fetal bovine serum) in a standard incubator (humidified, 37° C., 5% CO2) for 24 h. […] […] After 24 h of treatment, cells were incubated with medium containing JC-1 (2 ug/ml) for 30 min at 37° C., then the staining solution was removed, DMEM without phenol red was added, and green fluorescence (ex 485 nm/em 538 nm) and red fluorescence (ex 544 nm/em 590 nm) was measured using a fluorescence plate reader (SpectraMax M5). The ratio of red to green fluorescence in each well was determined and the average and standard deviation of the quadruplicate treatments were calculated."}, "[1]": {"test_system": "mitochondrial electron transport complex I", "experiment": "Mitochondrial complex I protein expression in adipocytes (Western blot)", "type": "cell-based, murine", "settings": "3T3-L1 adipocytes, 48 hrs, vs. control", "protocol": "(§1) Murine 3T3-L1 pre-adipocytes (American Type Culture Collection) were cultured in Dulbecco's Modified Eagle's Medium (DMEM) supplemented with 10% fetal bovine serum and allowed to reach confluence. Differentiation of pre-adipocytes was initiated with 1 μM insulin, 0.25 μM dexamethasone and 0.5 mM 3-isobutyl-1-methylxanthine in DMEM, supplemented with 10% fetal bovine serum. After 48 h, the culture medium was replaced with DMEM supplemented with 10% fetal bovine serum and 1 μM insulin. The culture medium was changed every other day with DMEM containing 10% fetal bovine serum. […] After treatment, cells were washed twice with ice-cold PBS, lysed in sample buffer (62.5 mM Tris-Cl pH 6.8, 2% SDS, 5 mM DTT) at room temperature and vortexed. Cell lysates were then boiled for 5 minutes and cleared by centrifugation (13,000 rpm, 10 minutes at 4° C.). Protein concentration was determined using the Bio-Rad DC protein assay. The soluble lysates (10 μg per lane) were subjected to 10% SDS-PAGE, proteins were then transferred to nitrocellulose membranes and blocked with 5% non-fat milk/TBST for 1 h at room temperature. Membranes were incubated with primary antibodies directed against PPAR-γ (1:1000), PGC-1α (1:1000), α-tubulin (1:10 000), Complex I (1:2000), Complex II (1:2000), Complex III (1:2000) and Complex V (1:2000) in 5% milk/TBST at 4° C. overnight. After washing membranes with TBST three times, membranes were incubated with horseradish peroxidase-conjugated secondary antibody for 1 h at room temperature. Western blots were developed using ECL (Roche Manheim, Germany) and quantified by scanning densitometry."}, "PGC-1α": {"test_system": "PGC-1α", "experiment": "PGC-1α protein level in adipocytes (Western blot, densitometry)", "type": "cell-based, murine", "settings": "3T3-L1 adipocytes; hydroxytyrosol 1.0 μM; vs. control", "protocol": "as §1, with “Membranes were incubated with primary antibodies directed against PPAR-γ (1:1000), PGC-1α (1:1000), α-tubulin (1:10 000), Complex I (1:2000), Complex II (1:2000), Complex III (1:2000) and Complex V (1:2000) in 5% milk/TBST at 4° C. overnight. After washing membranes with TBST three times, membranes were incubated with horseradish peroxidase-conjugated secondary antibody for 1 h at room temperature.” left out"}},
  "note": "Entries after “also recorded” stand apart in the source; their conditions may differ.",
  "data": [
    {"smiles": "Cn1c(=O)c2c(ncn2C)n(C)c1=O", "note": "[Caffeine, caffeine]", "values": [
      {"measurement": "Effect on mitochondrial membrane potential (red/green JC-1 fluorescence ratio)", "setting": "C2C12 mouse myoblasts; 200 uM alone", "result": "no significant effect"},
      {"measurement": "Increase in mitochondrial membrane potential", "setting": "C2C12 mouse myoblasts; 200 μM alone", "result": "−4", "unit": "%"}
    ]},
    {"smiles": "NC(=O)c1ncn([C@@H]2O[C@H](CO)[C@@H](O)[C@H]2O)c1N", "note": "[AICAR, aminoimidazole carboxamide ribonucleotide]", "values": [
      {"measurement": "Effect on mitochondrial membrane potential (red/green JC-1 fluorescence ratio)", "setting": "C2C12 mouse myoblasts; 500 uM", "result": "increase in mitochondrial potential; also recorded: increase mitochondrial membrane potential"},
      {"measurement": "Increase in mitochondrial membrane potential", "setting": "C2C12 mouse myoblasts; 500 μM", "result": 16, "unit": "%"}
    ]},
    {"smiles": "OCCc1ccc(O)c(O)c1", "note": "[Hydroxytyrosol, 3,4-dihydroxyphenylethanol]", "values": [
      {"measurement": "Effect on mitochondrial membrane potential (red/green JC-1 fluorescence ratio)", "setting": "C2C12 mouse myoblasts; 1 uM", "result": "no significant effect"},
      {"measurement": "Increase in mitochondrial membrane potential", "setting": "C2C12 mouse myoblasts; 1 μM", "result": 1, "unit": "%"},
      {"measurement": "Increase in mitochondrial membrane potential", "setting": "C2C12 mouse myoblasts; 10 μM", "result": 11, "unit": "%"},
      {"measurement": "Mitochondrial electron transport complex I protein", "setting": "[1]; 0.1 μM", "result": "131±16", "unit": "%"},
      {"measurement": "Mitochondrial electron transport complex I protein", "setting": "[1]; 1.0 μM", "result": "163±31", "unit": "%"},
      {"measurement": "Mitochondrial electron transport complex I protein", "setting": "[1]; 10.0 μM", "result": "138±21", "unit": "%"},
      {"measurement": "PGC-1α protein expression (PGC-1α:α-tubulin ratio), maximum", "setting": "PGC-1α", "result": "205±52", "unit": "%"}
    ]},
    {"smiles": "C[N+](C)(C)C[C@H](O)CC(=O)[O-]", "note": "[L-carnithine]", "values": [
      {"measurement": "Effect on mitochondrial membrane potential (red/green JC-1 fluorescence ratio)", "setting": "C2C12 mouse myoblasts; 200 uM alone", "result": "no significant effect"},
      {"measurement": "Increase in mitochondrial membrane potential", "setting": "C2C12 mouse myoblasts; 200 μM alone", "result": 0, "unit": "%"}
    ]}
  ]
}
